Data as given in patent US20210220376A1, “ADDICTION TREATMENT OF AN ALCOHOL-CONSUMING PATIENT POPULATION” (Amygdala Neurosciences, Inc., priority 2018, published 2021).

Tested on: healthy male alcohol drinkers
Assay: Phase 1 single-ascending-dose study of compound (2) coadministered with ethanol: safety
Format: in vivo, human
Description: This was a single-center, randomized, double-blind, placebo-controlled, single-ascending-dose cohort study to evaluate the safety and tolerability of the coadministration of up to 6 dose levels of compound (2) (25 mg, 50 mg, 100 mg, 200 mg, 400 mg and 600 mg) and EtOH in healthy male alcohol drinkers.
Within 27 days of the medical screening visit, subjects were enrolled and attended an inpatient Qualification Phase in which they received up to 5 standard drinks (14 grams of EtOH each; oral solution of vodka containing 40% [v/v] EtOH, mixed with a non-carbonated beverage, one drink every 30 minutes) to evaluate their tolerance to repeat administration to ensure they could safely tolerate the planned EtOH treatment. A minimum washout interval of 44 hours was performed between initiation of the last EtOH administration in the Qualification Phase and study drug administration in the Treatment Phase.
Following qualification, eligible subjects were enrolled and randomized to receive compound (2) or placebo in a 3:1 fashion in each of 6 cohorts (8 subjects per cohort). As a safety precaution, no more than 4 subjects were administered study drug on any given day. Planned compound (2) dose levels included doses of 25 mg, 50 mg, 100 mg, 200 mg, 400 mg, and 600 mg. Study drug administration occurred approximately 1 hour following ingestion of a standardized (moderate-fat) meal. Approximately 2 hours after receiving the study drug, subjects began a session of repeat EtOH administration, during which they could receive up to 5 doses of EtOH (14 grams each, approximately 1 standard drink) every 30 minutes, or until a stopping criterion applied. Safety assessments, pharmacodynamic assessments and pharmacokinetic blood sample collections were obtained up to 48 hours post-dose. Subjects were discharged after 48-hour post-dose procedures were completed and the investigator deemed it safe to do so. Subjects returned for the safety follow-up visit approximately 7 (±2) days following discharge from the Treatment Phase or after early discontinuation from the study.
The primary endpoints included frequency and severity of adverse events (AEs), ethanol reaction (ER) scores and flushing, laboratory values, vital signs, and electrocardiograms (ECGs).
Subjects' ER scores and flushing were summarized descriptively by timepoint, category and treatment. In addition, flushing, ER heat sensation and ER palpitation were compared between each of the active doses and placebo using a mixed-effect model for repeated measures (MMRM) analysis with treatment, visit, and treatment by visit as fixed effects and baseline as a covariate. The actual value was used as the dependent variable and visit included pre-EtOH, 30 minutes, 60 minutes, 90 minutes, 120 minutes, 150 minutes and 3 hours relative to the first EtOH administration in Treatment Phase. The variance-covariance matrix was assumed to be unstructured. […] Results were presented as least square means (LSMEANS), treatment differences in LSMEANS, 95% confidence intervals (CI) and p-values.
Vital signs measurements (respiratory rate, systolic and diastolic blood pressure, and heart rate) were summarized by treatment and visit. Heart rate and diastolic blood pressure were also compared between each of the active doses and placebo using an MMRM analysis with treatment, visit, and treatment by visit as fixed effects and baseline as a covariate.
Twelve-lead ECG results were summarized by timepoint and treatment, and frequencies (numbers and percentages) were calculated for the overall evaluation. Concomitant medications, clinical laboratory evaluations (raw data and change from baseline, as applicable) and physical examination findings were listed.

[1] = 25 mg, 105 min after first EtOH
[2] = 25 mg, 135 min after first EtOH
[3] = 50 mg, 105 min after first EtOH
[4] = 50 mg, 135 min after first EtOH
[5] = 100 mg, 15 min after first EtOH
[6] = 100 mg, 45 min after first EtOH
[7] = 100 mg, 75 min after first EtOH
[8] = 100 mg, 105 min after first EtOH
[9] = 100 mg, 135 min after first EtOH
[10] = 200 mg, 15 min after first EtOH
[11] = 200 mg, 45 min after first EtOH
[12] = 200 mg, 75 min after first EtOH
[13] = 200 mg, 105 min after first EtOH

O=C(NCc1ccc(-c2ccn(COP(=O)(O)O)c(=O)c2)cc1)c1c(Cl)cccc1Cl [Compound (2), phosphoric acid mono-(4-{4-[(2,6-dichloro-benzoylamino)-methyl]-phenyl}-2-oxo-2H-pyridin-1-ylmethyl) ester]
flushing (25 mg): not observed | subjects reporting a TEAE (25 mg): 66.7% | Diastolic Blood Pressure, Mean (25 mg, 15 min after first EtOH): 76.0 mmHg | Systolic Blood Pressure, Mean (25 mg, 15 min after first EtOH): 120.3 mmHg | Diastolic Blood Pressure, Mean (25 mg, 45 min after first EtOH): 75.5 mmHg | Heart Rate, Mean (25 mg, 45 min after first EtOH): 65.3 beats/min | Systolic Blood Pressure, Mean (25 mg, 45 min after first EtOH): 120.5 mmHg | QTcF Interval, Aggregate, Mean (25 mg, 1 hour after initiation of repeat EtOH administration session): 406.7 ms | Diastolic Blood Pressure, Mean (25 mg, 75 min after first EtOH): 75.8 mmHg | Heart Rate, Mean (25 mg, 75 min after first EtOH): 63.5 beats/min | Systolic Blood Pressure, Mean (25 mg, 75 min after first EtOH): 120.7 mmHg | Diastolic Blood Pressure, Mean [1]: 74.0 mmHg | Heart Rate, Mean [1]: 66.5 beats/min | Systolic Blood Pressure, Mean [1]: 118.2 mmHg | Diastolic Blood Pressure, Mean [2]: 75.0 mmHg | Heart Rate, Mean [2]: 64.7 beats/min | Systolic Blood Pressure, Mean [2]: 119.0 mmHg | Diastolic Blood Pressure, Mean (25 mg, Pre-EtOH): 73.5 mmHg | Heart Rate, Mean (25 mg, Pre-EtOH): 59.5 beats/min | Systolic Blood Pressure, Mean (25 mg, Pre-EtOH): 117.2 mmHg | QTcF Interval, Aggregate, Mean (25 mg, prior to initiation of repeat EtOH administration session): 403.7 ms | subjects reporting a TEAE (50 mg): 83.3% | Diastolic Blood Pressure, Mean (50 mg, 15 min after first EtOH): 73.3 mmHg | Systolic Blood Pressure, Mean (50 mg, 15 min after first EtOH): 116.7 mmHg | Diastolic Blood Pressure, Mean (50 mg, 45 min after first EtOH): 75.2 mmHg | Heart Rate, Mean (50 mg, 45 min after first EtOH): 72.7 beats/min | Systolic Blood Pressure, Mean (50 mg, 45 min after first EtOH): 119.5 mmHg | QTcF Interval, Aggregate, Mean (50 mg, 1 hour after initiation of repeat EtOH administration session): 402.5 ms | Diastolic Blood Pressure, Mean (50 mg, 75 min after first EtOH): 73.8 mmHg | Heart Rate, Mean (50 mg, 75 min after first EtOH): 80.5 beats/min | Systolic Blood Pressure, Mean (50 mg, 75 min after first EtOH): 117.5 mmHg | Diastolic Blood Pressure, Mean [3]: 71.8 mmHg | Heart Rate, Mean [3]: 81.8 beats/min | Systolic Blood Pressure, Mean [3]: 117.5 mmHg | Diastolic Blood Pressure, Mean [4]: 78.7 mmHg | Heart Rate, Mean [4]: 76.8 beats/min | Systolic Blood Pressure, Mean [4]: 123.7 mmHg | Diastolic Blood Pressure, Mean (50 mg, Pre-EtOH): 74.5 mmHg | Heart Rate, Mean (50 mg, Pre-EtOH): 56.7 beats/min | Systolic Blood Pressure, Mean (50 mg, Pre-EtOH): 115.7 mmHg | subjects with TEAE of tachyarrhythmia (50 mg, after EtOH): one | QTcF Interval, Aggregate, Mean (50 mg, prior to initiation of repeat EtOH administration session): 400.7 ms | subjects reporting a TEAE (100 mg): 100% | Diastolic Blood Pressure, Mean [5]: 72.0 mmHg | Systolic Blood Pressure, Mean [5]: 119.2 mmHg | Diastolic Blood Pressure, Mean [6]: 70.2 mmHg | Heart Rate, Mean [6]: 70.5 beats/min | Systolic Blood Pressure, Mean [6]: 120.0 mmHg | QTcF Interval, Aggregate, Mean (100 mg, 1 hour after initiation of repeat EtOH administration session): 405.3 ms | Diastolic Blood Pressure, Mean [7]: 70.7 mmHg | Heart Rate, Mean [7]: 81.8 beats/min | Systolic Blood Pressure, Mean [7]: 120.2 mmHg | Diastolic Blood Pressure, Mean [8]: 69.5 mmHg | Heart Rate, Mean [8]: 83.8 beats/min | Systolic Blood Pressure, Mean [8]: 125.3 mmHg | Diastolic Blood Pressure, Mean [9]: 68.2 mmHg | Heart Rate, Mean [9]: 81.3 beats/min | Systolic Blood Pressure, Mean [9]: 114.8 mmHg | Diastolic Blood Pressure, Mean (100 mg, Pre-EtOH): 71.5 mmHg | Heart Rate, Mean (100 mg, Pre-EtOH): 57.0 beats/min | Systolic Blood Pressure, Mean (100 mg, Pre-EtOH): 115.7 mmHg | creatine kinase value of one subject (100 mg, follow-up, abnormal, not clinically significant): 1350 U/L | severe TEAE (100 mg, one event): 0.6% | QTcF Interval, Aggregate, Mean (100 mg, prior to initiation of repeat EtOH administration session): 401.3 ms | creatine kinase value of one subject, repeat (100 mg, repeat 3 days later): 583 U/L | subjects reporting a TEAE (200 mg): 100% | Diastolic Blood Pressure, Mean [10]: 76.5 mmHg | Systolic Blood Pressure, Mean [10]: 121.7 mmHg | Diastolic Blood Pressure, Mean [11]: 72.5 mmHg | Heart Rate, Mean [11]: 84.5 beats/min | Systolic Blood Pressure, Mean [11]: 124.5 mmHg | QTcF Interval, Aggregate, Mean (200 mg, 1 hour after initiation of repeat EtOH administration session): 403.2 ms | Diastolic Blood Pressure, Mean [12]: 69.8 mmHg | Heart Rate, Mean [12]: 97.0 beats/min | Systolic Blood Pressure, Mean [12]: 125.7 mmHg | Diastolic Blood Pressure, Mean [13]: 68.0 mmHg | Heart Rate, Mean [13]: 101.3 beats/min | Systolic Blood Pressure, Mean [13]: 124.0 mmHg
